Assay results: US11478513B2, “Cutibacterium avidum strain, and composition for preventing or treating atopic dermatitis, comprising strain or cultured product thereof” (priority 2018, dated 2022)

Key:
HaCaT cells = assay: Cytotoxicity (MTT) in HaCaT cells; type: cell-based, human; settings: experimental group in which rosmarinic acid was added, 48 hours
Protocol: To evaluate the cytotoxicity of fermented filtrates prepared in the Example 3, the following experiment was progressed. HaCaT cells were attached on a 96-well cell culture plate for 24 hours at 5×10^3 cells/well each and then the test group samples were added by concentration to culture it under the condition of 5% CO2 and 37° C. for 48 hours. 48 hours later, the cultured cell medium was removed, and 0.5 mg/ml dimethylthiazol-2-y1)-2-5-diphenyltetrazolium bromide (MTT) formazan solution was treated to cells, and they were reacted for 4 hours, and after the time passage, all the cell medium was removed and the formazan solution was dissolved by DMSO and then the absorbance was measured at 570 nm with SpectraMax M2. Then, the survival rate of the HaCaT cell line was calculated by converting with the equation of O.Dsample/O.Dcontrol×100.

IL-8 = IL-8 RNA expression in HaCaT cells treated with heat-treated C. acnes; type: cell-based, human; settings: pre-treated 1 hour, heat-treated C. acnes (100MOI) 4 hours, real-time PCR; compared to control group induced to C. acnes; FIG. 11
Protocol: (§1) At first, GENSCO1 fermented filtrates were pre-treated for 1 hour to cells in which 2×10^5 of HaCaT human keratinocyte lines were attached in a 6-well plate, respectively, by culturing them in a 37° C. and 5% CO2 incubator for 24 hours. Then, the heat-treated C. acnes (100MOI) was treated and was reacted for 4 hours. Then, after extracting RNA for each sample, the RNA expression for the inflammation response cytokine factors, IL-6 and IL-8 was confirmed by real-time PCR.

IL-6 = IL-6 RNA expression in HaCaT cells treated with heat-treated C. acnes; type: cell-based, human; settings: pre-treated 1 hour, heat-treated C. acnes (100MOI) 4 hours, real-time PCR; FIG. 12
Protocol: as §1

[1] = system: Staphylococcus aureus KCTC 1621; assay: Growth inhibition, overlay clear zone test (S. aureus); type: cell-based; settings: RCM agar overlay, anaerobic, 37° C., about 40 hours; triclosan 10 mg/ml
Protocol: (§2) The effect of growth inhibition of S. aureus and C. acnes was confirmed by observing formation of a clear zone. […] The experiment was progressed, expecting that S. aureus and C. acnes around Cutibacterium avidum GENSC01 could not grow and they became transparent, if Cutibacterium avidum GENSC01 had the effect of inhibiting the growth of bacteria. The Cutibacterium avidum GENSC01 culture broth was collected with a platinum loop and was anaerobically cultured in a thin RCM agar plate at 37° C. for 72 hours by drawing a line about 2.5 cm. After confirming that Cutibacterium avidum GENSC01 sufficiently grew, S. aureus and C. acnes strains adjusted to 10^4 cfu/ml were inoculated in 10 ml RCM agar at about 45° C. which was not yet solidified, and they were well suspended before the medium was hardened, and they were evenly solidified by pouring them on the agar plate in which Cutibacterium avidum GENSC01 grew. In the solidified agar plate, S. aureus and C. acnes were further cultured anaerobically at 37° C. for about 40 hours and about 72 hours, respectively, to observe the size of the clear zone appearing around Cutibacterium avidum GENSC01. As the negative control group, phosphate-buffered saline (PBS) was used, and as the positive control group, triclosan was used, and S. aureus and C. acnes were treated at an amount of 10 mg/ml and 200 mg/ml, respectively.

[2] = system: Cutibacterium acnes ATCC 6919; assay: Growth inhibition, overlay clear zone test (C. acnes); type: cell-based; settings: RCM agar overlay, anaerobic, 37° C., about 72 hours; triclosan 200 mg/ml
Protocol: as §2

Compound	cell survival rate (HaCaT cells)	IL-8 expression (inflammation response) (IL-8)	expression of IL-6 (IL-6)	growth inhibition of S. aureus (clear zone) [1]	growth inhibition of C. acnes (clear zone) [2]
O=C(/C=C/c1ccc(O)c(O)c1)O[C@H](Cc1ccc(O)c(O)c1)C(=O)O [rosmarinic acid]	could be increased	inflammation response was reduced	reduced at a similar level		
Oc1cc(Cl)ccc1Oc1ccc(Cl)cc1Cl [triclosan]				the clear zone was observed, but it had much smaller area than GENSC01 treatment	the clear zone was observed, but it had much smaller area than GENSC01 treatment
